Data reported in PubChem BioAssay (NCI).
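48-hour exposure; five concentrations; linearly interpolated endpoints. Abbreviation: GI50, concentration required for 50% inhibition of growth. TGI is the concentration that stops growth completely.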

Columns and labels:
Experiment in all cases: NCI anticancer screen, dose series, 48 h
786-0 renal = system: 786-0 renal
A498 renal = system: A498 renal
A549 NSCLC = system: A549 NSCLC
ACHN renal = system: ACHN renal
BT-549 breast = system: BT-549 breast
CAKI-1 renal = system: CAKI-1 renal
CCRF-CEM leukemia = system: CCRF-CEM leukemia
COLO 205 colon = system: COLO 205 colon
DU-145 prostate = system: DU-145 prostate
EKVX NSCLC = system: EKVX NSCLC
HCC-2998 colon = system: HCC-2998 colon
HCT-116 colon = system: HCT-116 colon
HCT-15 colon = system: HCT-15 colon
HL-60(TB) leukemia = system: HL-60(TB) leukemia
HOP-62 NSCLC = system: HOP-62 NSCLC
HOP-92 NSCLC = system: HOP-92 NSCLC
HS 578T breast = system: HS 578T breast
HT29 colon = system: HT29 colon
IGROV1 ovarian = system: IGROV1 ovarian
K-562 leukemia = system: K-562 leukemia
KM12 colon = system: KM12 colon
LOX IMVI melanoma = system: LOX IMVI melanoma
MALME-3M melanoma = system: MALME-3M melanoma
MCF7 breast = system: MCF7 breast
MDA-MB-231 breast = system: MDA-MB-231 breast
MDA-MB-468 breast = system: MDA-MB-468 breast
MOLT-4 leukemia = system: MOLT-4 leukemia
NCI-H226 lung = system: NCI-H226 lung
NCI-H23 lung = system: NCI-H23 lung
NCI-H460 lung = system: NCI-H460 lung
NCI-H522 lung = system: NCI-H522 lung
NCI/ADR-RES ovarian = system: NCI/ADR-RES ovarian
OVCAR-3 ovarian = system: OVCAR-3 ovarian
OVCAR-4 ovarian = system: OVCAR-4 ovarian
OVCAR-5 ovarian = system: OVCAR-5 ovarian
OVCAR-8 ovarian = system: OVCAR-8 ovarian
PC-3 prostate = system: PC-3 prostate
RPMI-8226 leukemia = system: RPMI-8226 leukemia
RXF 393 renal = system: RXF 393 renal
SF-268 CNS = system: SF-268 CNS
SF-295 CNS = system: SF-295 CNS
SF-539 CNS = system: SF-539 CNS
SK-MEL-2 melanoma = system: SK-MEL-2 melanoma
SK-MEL-28 melanoma = system: SK-MEL-28 melanoma
SK-MEL-5 melanoma = system: SK-MEL-5 melanoma
SK-OV-3 ovarian = system: SK-OV-3 ovarian
SN12C renal = system: SN12C renal
SNB-19 CNS = system: SNB-19 CNS
SR leukemia = system: SR leukemia
SW-620 colon = system: SW-620 colon
T-47D breast = system: T-47D breast
TK-10 renal = system: TK-10 renal
U251 CNS = system: U251 CNS
UACC-257 melanoma = system: UACC-257 melanoma
UACC-62 melanoma = system: UACC-62 melanoma
UO-31 renal = system: UO-31 renal

Cc1ccc(/C=C(\C#N)n2nnc3c(F)cccc32)cc1
GI50 (786-0 renal): 424 nM | TGI (786-0 renal): 15.8 µM | GI50 (A498 renal): 10.8 µM | TGI (A498 renal): 87 µM | GI50 (A549 NSCLC): 504 nM | TGI (A549 NSCLC): > 100 µM | GI50 (ACHN renal): 555 nM | TGI (ACHN renal): > 100 µM | GI50 (BT-549 breast): 365 nM | TGI (BT-549 breast): 2490 nM | GI50 (CAKI-1 renal): 152 nM | TGI (CAKI-1 renal): > 100 µM | GI50 (CCRF-CEM leukemia): 285 nM | TGI (CCRF-CEM leukemia): 1660 nM | GI50 (COLO 205 colon): 294 nM | TGI (COLO 205 colon): 739 nM | GI50 (DU-145 prostate): 386 nM | TGI (DU-145 prostate): > 100 µM | GI50 (EKVX NSCLC): 1560 nM | TGI (EKVX NSCLC): > 94.1 µM | GI50 (HCC-2998 colon): 971 nM | TGI (HCC-2998 colon): 3.24 µM | GI50 (HCT-116 colon): 285 nM | TGI (HCT-116 colon): > 35.8 µM | GI50 (HCT-15 colon): 319 nM | TGI (HCT-15 colon): > 100 µM | GI50 (HL-60(TB) leukemia): 196 nM | TGI (HL-60(TB) leukemia): 519 nM | GI50 (HOP-62 NSCLC): 398 nM | TGI (HOP-62 NSCLC): 6.29 µM | GI50 (HOP-92 NSCLC): 79.7 nM | TGI (HOP-92 NSCLC): 1680 nM | GI50 (HS 578T breast): 379 nM | TGI (HS 578T breast): > 100 µM | GI50 (HT29 colon): 426 nM | TGI (HT29 colon): > 100 µM | GI50 (IGROV1 ovarian): 507 nM | TGI (IGROV1 ovarian): 9.15 µM | GI50 (K-562 leukemia): 62.4 nM | GI50 (KM12 colon): 470 nM | TGI (KM12 colon): > 100 µM | GI50 (LOX IMVI melanoma): 349 nM | TGI (LOX IMVI melanoma): 2300 nM | GI50 (MALME-3M melanoma): 404 nM | TGI (MALME-3M melanoma): > 96.2 µM | GI50 (MCF7 breast): 1530 nM | TGI (MCF7 breast): > 100 µM | GI50 (MDA-MB-231 breast): 426 nM | TGI (MDA-MB-231 breast): 2770 nM | GI50 (MDA-MB-468 breast): 1530 nM | TGI (MDA-MB-468 breast): 8.71 µM | GI50 (MOLT-4 leukemia): 473 nM | TGI (MOLT-4 leukemia): 4.4 µM | GI50 (NCI-H226 lung): 936 nM | TGI (NCI-H226 lung): > 62.9 µM | GI50 (NCI-H23 lung): 523 nM | TGI (NCI-H23 lung): 29 µM | GI50 (NCI-H460 lung): 376 nM | TGI (NCI-H460 lung): 3.3 µM | GI50 (NCI-H522 lung): 84.4 nM | TGI (NCI-H522 lung): 360 nM | GI50 (NCI/ADR-RES ovarian): 111 nM | TGI (NCI/ADR-RES ovarian): 343 nM | GI50 (OVCAR-3 ovarian): 254 nM | TGI (OVCAR-3 ovarian): 941 nM | GI50 (OVCAR-4 ovarian): 2790 nM | TGI (OVCAR-4 ovarian): > 100 µM | GI50 (OVCAR-5 ovarian): 421 nM | TGI (OVCAR-5 ovarian): 5.24 µM | GI50 (OVCAR-8 ovarian): 328 nM | TGI (OVCAR-8 ovarian): 1690 nM | GI50 (PC-3 prostate): 328 nM | TGI (PC-3 prostate): > 38.9 µM | GI50 (RPMI-8226 leukemia): 296 nM | TGI (RPMI-8226 leukemia): 1710 nM | GI50 (RXF 393 renal): 237 nM | TGI (RXF 393 renal): 735 nM | GI50 (SF-268 CNS): 765 nM | TGI (SF-268 CNS): > 61.5 µM | GI50 (SF-295 CNS): 289 nM | TGI (SF-295 CNS): 50.8 µM | GI50 (SF-539 CNS): 200 nM | TGI (SF-539 CNS): 467 nM | GI50 (SK-MEL-2 melanoma): 302 nM | TGI (SK-MEL-2 melanoma): > 100 µM | GI50 (SK-MEL-28 melanoma): 825 nM | TGI (SK-MEL-28 melanoma): > 100 µM | GI50 (SK-MEL-5 melanoma): 399 nM | TGI (SK-MEL-5 melanoma): 4.36 µM | GI50 (SK-OV-3 ovarian): 585 nM | TGI (SK-OV-3 ovarian): 46.2 µM | GI50 (SN12C renal): 416 nM | TGI (SN12C renal): 2250 nM | GI50 (SNB-19 CNS): 718 nM | TGI (SNB-19 CNS): > 100 µM | GI50 (SR leukemia): 254 nM | TGI (SR leukemia): 4.31 µM | GI50 (SW-620 colon): 250 nM | TGI (SW-620 colon): > 100 µM | GI50 (T-47D breast): 1630 nM | TGI (T-47D breast): > 100 µM | GI50 (TK-10 renal): 2700 nM | TGI (TK-10 renal): 7.79 µM | GI50 (U251 CNS): 387 nM | TGI (U251 CNS): > 42.7 µM | GI50 (UACC-257 melanoma): 894 nM | TGI (UACC-257 melanoma): > 100 µM | GI50 (UACC-62 melanoma): 273 nM | TGI (UACC-62 melanoma): 27 µM | GI50 (UO-31 renal): 324 nM | TGI (UO-31 renal): > 100 µM
